Measurements reported in the NIST ThermoML archive (doi:10.1021/je8003782).

Experiment: xn = mol fraction of the nth substance listed
Details: 101 kPa, Liquid

C1N2CN3CN1CN(C2)C3 [1,3,5,7-tetraazaadamantane] + CC(=O)O
Details | mass density [kg/m3] | viscosity [mPa·s]
293.15 K, x1 = 0.0201 | 1058.6 | 1.497
293.15 K, x1 = 0.0401 | 1066.7 | 1.865
293.15 K, x1 = 0.06 | 1075.67 | 2.363
293.15 K, x1 = 0.0801 | 1085.77 | 3.021
293.15 K, x1 = 0.1 | 1091.87 | 3.841
293.15 K, x1 = 0.1201 | 1100.76 | 4.951
293.15 K, x1 = 0.15 | 1111.19 | 7.154
298.15 K, x1 = 0.0201 | 1052.66 | 1.367
298.15 K, x1 = 0.0401 | 1061.41 | 1.682
298.15 K, x1 = 0.06 | 1070.38 | 2.106
298.15 K, x1 = 0.0801 | 1080.66 | 2.655
298.15 K, x1 = 0.1 | 1086.54 | 3.333
298.15 K, x1 = 0.1201 | 1095.79 | 4.254
298.15 K, x1 = 0.15 | 1106.18 | 5.988
303.15 K, x1 = 0.0201 | 1046.65 | 1.248
303.15 K, x1 = 0.0401 | 1055.87 | 1.523
303.15 K, x1 = 0.06 | 1065.17 | 1.893
303.15 K, x1 = 0.0801 | 1075.44 | 2.355
303.15 K, x1 = 0.1 | 1081.61 | 2.919
303.15 K, x1 = 0.1201 | 1090.8 | 3.657
303.15 K, x1 = 0.15 | 1101.14 | 5.085
308.15 K, x1 = 0.0201 | 1042.8 | 1.148
308.15 K, x1 = 0.0401 | 1050.6 | 1.383
308.15 K, x1 = 0.06 | 1059.92 | 1.703
308.15 K, x1 = 0.0801 | 1068.93 | 2.091
308.15 K, x1 = 0.1 | 1076.58 | 2.565
308.15 K, x1 = 0.1201 | 1086.04 | 3.179
308.15 K, x1 = 0.15 | 1096.34 | 4.368
313.15 K, x1 = 0.0201 | 1036.2 | 1.059
313.15 K, x1 = 0.0401 | 1045.66 | 1.268
313.15 K, x1 = 0.06 | 1055.02 | 1.549
313.15 K, x1 = 0.0801 | 1063.52 | 1.879
313.15 K, x1 = 0.1 | 1071.68 | 2.296
313.15 K, x1 = 0.1201 | 1081.27 | 2.806
313.15 K, x1 = 0.15 | 1091.63 | 3.821
318.15 K, x1 = 0.0201 | 1030.1 | 0.992
318.15 K, x1 = 0.0401 | 1039.61 | 1.179
318.15 K, x1 = 0.06 | 1049.52 | 1.435
318.15 K, x1 = 0.0801 | 1057.74 | 1.719
318.15 K, x1 = 0.1 | 1065.6 | 2.073
318.15 K, x1 = 0.1201 | 1076.49 | 2.512
318.15 K, x1 = 0.15 | 1086 | 3.352
323.15 K, x1 = 0.0201 | 1024.35 | 0.909
323.15 K, x1 = 0.0401 | 1034.21 | 1.072
323.15 K, x1 = 0.06 | 1044.05 | 1.296
323.15 K, x1 = 0.0801 | 1052.4 | 1.541
323.15 K, x1 = 0.1 | 1060.71 | 1.842
323.15 K, x1 = 0.1201 | 1069.06 | 2.203
323.15 K, x1 = 0.15 | 1080.9 | 2.893
328.15 K, x1 = 0.0201 | 1019.23 | 0.845
328.15 K, x1 = 0.0401 | 1028.98 | 0.988
328.15 K, x1 = 0.06 | 1039.22 | 1.185
328.15 K, x1 = 0.0801 | 1047.33 | 1.395
328.15 K, x1 = 0.1 | 1055.72 | 1.657
328.15 K, x1 = 0.1201 | 1064 | 1.97
328.15 K, x1 = 0.15 | 1075.88 | 2.545
333.15 K, x1 = 0.0201 | 1014.76 | 0.79
333.15 K, x1 = 0.0401 | 1024.69 | 0.919
333.15 K, x1 = 0.06 | 1034.16 | 1.096
333.15 K, x1 = 0.0801 | 1043.04 | 1.279
333.15 K, x1 = 0.1 | 1051.63 | 1.515
333.15 K, x1 = 0.1201 | 1059.77 | 1.776
333.15 K, x1 = 0.15 | 1071.94 | 2.285

CC(=O)OC(C)=O [ethanoic anhydride] + CC(=O)O
Details | mass density [kg/m3] | viscosity [mPa·s]
293.15 K, x2 = 0 | 1080.89 | 0.888
293.15 K, x2 = 0.1 | 1079.28 | 0.905
293.15 K, x2 = 0.2 | 1077.19 | 0.92
293.15 K, x2 = 0.2999 | 1074.93 | 0.934
293.15 K, x2 = 0.3996 | 1072.42 | 0.954
293.15 K, x2 = 0.4999 | 1069.56 | 0.975
293.15 K, x2 = 0.5965 | 1066.68 | 1.004
293.15 K, x2 = 0.6992 | 1063.1 | 1.041
293.15 K, x2 = 0.8004 | 1059.19 | 1.084
293.15 K, x2 = 0.8976 | 1054.94 | 1.145
298.15 K, x2 = 0 | 1074.8 | 0.829
298.15 K, x2 = 0.1 | 1073.24 | 0.844
298.15 K, x2 = 0.2 | 1071.18 | 0.859
298.15 K, x2 = 0.2999 | 1068.96 | 0.872
298.15 K, x2 = 0.3996 | 1066.47 | 0.887
298.15 K, x2 = 0.4999 | 1063.66 | 0.908
298.15 K, x2 = 0.5965 | 1060.8 | 0.933
298.15 K, x2 = 0.6992 | 1057.27 | 0.966
298.15 K, x2 = 0.8004 | 1053.41 | 1.008
298.15 K, x2 = 0.8976 | 1049.21 | 1.057
303.15 K, x2 = 0 | 1068.7 | 0.778
303.15 K, x2 = 0.1 | 1067.18 | 0.793
303.15 K, x2 = 0.2 | 1065.17 | 0.805
303.15 K, x2 = 0.2999 | 1062.98 | 0.819
303.15 K, x2 = 0.3996 | 1060.53 | 0.831
303.15 K, x2 = 0.4999 | 1057.75 | 0.849
303.15 K, x2 = 0.5965 | 1054.93 | 0.874
303.15 K, x2 = 0.6992 | 1051.45 | 0.903
303.15 K, x2 = 0.8004 | 1047.64 | 0.936
303.15 K, x2 = 0.8976 | 1043.48 | 0.985
308.15 K, x2 = 0 | 1062.61 | 0.729
308.15 K, x2 = 0.1 | 1061.12 | 0.742
308.15 K, x2 = 0.2 | 1059.15 | 0.754
308.15 K, x2 = 0.2999 | 1057 | 0.768
308.15 K, x2 = 0.3996 | 1054.57 | 0.777
308.15 K, x2 = 0.4999 | 1051.83 | 0.793
308.15 K, x2 = 0.5965 | 1049.05 | 0.814
308.15 K, x2 = 0.6992 | 1045.62 | 0.842
308.15 K, x2 = 0.8004 | 1041.85 | 0.873
308.15 K, x2 = 0.8976 | 1037.75 | 0.919
313.15 K, x2 = 0 | 1056.49 | 0.688
313.15 K, x2 = 0.1 | 1055.06 | 0.699
313.15 K, x2 = 0.2 | 1053.12 | 0.71
313.15 K, x2 = 0.2999 | 1051 | 0.721
313.15 K, x2 = 0.3996 | 1048.6 | 0.734
313.15 K, x2 = 0.4999 | 1045.9 | 0.748
313.15 K, x2 = 0.5965 | 1043.16 | 0.766
313.15 K, x2 = 0.6992 | 1039.78 | 0.791
313.15 K, x2 = 0.8004 | 1036.06 | 0.82
313.15 K, x2 = 0.8976 | 1032.01 | 0.86
318.15 K, x2 = 0 | 1050.38 | 0.648
318.15 K, x2 = 0.1 | 1048.96 | 0.659
318.15 K, x2 = 0.2 | 1047.07 | 0.666
318.15 K, x2 = 0.2999 | 1044.99 | 0.678
318.15 K, x2 = 0.3996 | 1042.62 | 0.688
318.15 K, x2 = 0.4999 | 1039.96 | 0.703
318.15 K, x2 = 0.5965 | 1037.26 | 0.721
318.15 K, x2 = 0.6992 | 1033.93 | 0.743
318.15 K, x2 = 0.8004 | 1030.27 | 0.77
318.15 K, x2 = 0.8976 | 1026.28 | 0.8
323.15 K, x2 = 0 | 1044.24 | 0.61
323.15 K, x2 = 0.1 | 1042.87 | 0.621
323.15 K, x2 = 0.2 | 1041.01 | 0.627
323.15 K, x2 = 0.2999 | 1038.96 | 0.638
323.15 K, x2 = 0.3996 | 1036.63 | 0.649
323.15 K, x2 = 0.4999 | 1034.01 | 0.661
323.15 K, x2 = 0.5965 | 1031.34 | 0.676
323.15 K, x2 = 0.6992 | 1028.06 | 0.699
323.15 K, x2 = 0.8004 | 1024.46 | 0.723
323.15 K, x2 = 0.8976 | 1020.54 | 0.751
328.15 K, x2 = 0 | 1038.07 | 0.58
328.15 K, x2 = 0.1 | 1036.74 | 0.587
328.15 K, x2 = 0.2 | 1034.94 | 0.595
328.15 K, x2 = 0.2999 | 1032.91 | 0.603
328.15 K, x2 = 0.3996 | 1030.61 | 0.614
328.15 K, x2 = 0.4999 | 1028.04 | 0.625
328.15 K, x2 = 0.5965 | 1025.39 | 0.639
328.15 K, x2 = 0.6992 | 1022.18 | 0.66
328.15 K, x2 = 0.8004 | 1018.64 | 0.68
328.15 K, x2 = 0.8976 | 1014.79 | 0.708
333.15 K, x2 = 0 | 1031.9 | 0.548
333.15 K, x2 = 0.1 | 1030.63 | 0.556
333.15 K, x2 = 0.2 | 1028.83 | 0.562
333.15 K, x2 = 0.2999 | 1026.84 | 0.57
333.15 K, x2 = 0.3996 | 1024.57 | 0.58
333.15 K, x2 = 0.4999 | 1022.05 | 0.59
333.15 K, x2 = 0.5965 | 1019.44 | 0.605
333.15 K, x2 = 0.6992 | 1016.3 | 0.622
333.15 K, x2 = 0.8004 | 1012.82 | 0.64
333.15 K, x2 = 0.8976 | 1009.03 | 0.665
338.15 K, x2 = 0 | 1025.7 | 0.521
338.15 K, x2 = 0.1 | 1024.48 | 0.53
338.15 K, x2 = 0.2 | 1022.71 | 0.533
338.15 K, x2 = 0.2999 | 1020.75 | 0.542
338.15 K, x2 = 0.3996 | 1018.52 | 0.551
338.15 K, x2 = 0.4999 | 1016.04 | 0.558
338.15 K, x2 = 0.5965 | 1013.48 | 0.575
338.15 K, x2 = 0.6992 | 1010.39 | 0.59
338.15 K, x2 = 0.8004 | 1006.97 | 0.605
338.15 K, x2 = 0.8976 | 1003.24 | 0.629
